A value given as a limit tells only on which side of the number the result lay.

Broadly, the melting point is the temperature, or range, at which the solid turns liquid.

The compound `CC(C)n1nc(-c2sc(NC(=O)c3ccc(CN(C)C)cc3)nc2-c2ccccc2)ccc1=O` [Example 28, 4-[(Dimethylamino)methyl]-N-[5-(1-isopropyl-6-oxo-1,6-dihydro-3-pyridazinyl)-4-phenyl-1,3-thiazol-2-yl]benzamide] came in with a melting point of 246 to 248 °C.

On to `CC(C)n1nc(-c2sc(NC(=O)c3ccc4ccccc4c3)nc2-c2ccccc2)ccc1=O` [Example 30, N-[5-(1-Isopropyl-6-oxo-1,6-dihydro-3-pyridazinyl)-4-phenyl-1,3-thiazol-2-yl]-2-naphthamide], for which the melting point lay within 227 to 229 °C. To `CC(C)n1nc(-c2sc(NC(=O)c3cccc4ccccc34)nc2-c2ccccc2)ccc1=O` [Example 31, N-[5-(1-Isopropyl-6-oxo-1,6-dihydro-3-pyridazinyl)-4-phenyl-1,3-thiazol-2-yl]-1-naphthamide] belongs 223 to 224 °C. With `CC(C)n1nc(-c2sc(NC(=O)N3CCOCC3)nc2-c2ccccc2)ccc1=O` [Example 32, N-[5-(1-Isopropyl-6-oxo-1,6-dihydro-3-pyridazinyl)-4-phenyl-1,3-thiazol-2-yl]-4-morpholinecarboxamide] the figure was 231 to 232 °C. `CC(C)n1nc(-c2sc(NC(=O)C3CC3)nc2-c2ccccc2)ccc1=O` [Example 33, N-[5-(1-Isopropyl-6-oxo-1,6-dihydro-3-pyridazinyl)-4-phenyl-1,3-thiazol-2-yl]cyclopropanecarboxamide] yielded a melting point of 226 to 227 °C. `Cc1ccccc1C(=O)Nc1nc(-c2ccccc2)c(-c2ccc(=O)n(C(C)C)n2)s1` [Example 34, N-[5-(1-Isopropyl-6-oxo-1,6-dihydro-3-pyridazinyl)-4-phenyl-1,3-thiazol-2-yl]-2-methylbenzamide] had a melting point of 221 to 222 °C. To `CC(C)n1nc(-c2sc(NC(=O)c3cccc(Cl)c3)nc2-c2ccccc2)ccc1=O` [Example 35, 3-Chloro-N-[5-(1-isopropyl-6-oxo-1,6-dihydro-3-pyridazinyl)-4-phenyl-1,3-thiazol-2-yl]benzamide] belongs 173 to 174 °C; to `CC(C)n1nc(-c2sc(NC(=O)c3cccc(F)c3)nc2-c2ccccc2)ccc1=O` [Example 36, 3-Fluoro-N-[5-(1-isopropyl-6-oxo-1,6-dihydro-3-pyridazinyl)-4-phenyl-1,3-thiazol-2-yl]benzamide], 183 to 184 °C.

Compound `CC(C)n1nc(-c2sc(NC(=O)c3ccccc3F)nc2-c2ccccc2)ccc1=O` [Example 37, 2-Fluoro-N-[5-(1-isopropyl-6-oxo-1,6-dihydro-3-pyridazinyl)-4-phenyl-1,3-thiazol-2-yl]benzamide] registered a melting point of 251 to 252 °C. With `CC(C)n1nc(-c2sc(NC(=O)c3cccc(C(F)(F)F)c3)nc2-c2ccccc2)ccc1=O` [Example 38, N-[5-(1-Isopropyl-6-oxo-1,6-dihydro-3-pyridazinyl)-4-phenyl-1,3-thiazol-2-yl]-3-(trifluoromethyl)benzamide] the figure was 237 to 238 °C. Regarding `CC(C)n1nc(-c2sc(NC(=O)c3ccc(C(F)(F)F)cc3)nc2-c2ccccc2)ccc1=O` [Example 39, N-[5-(1-Isopropyl-6-oxo-1,6-dihydro-3-pyridazinyl)-4-phenyl-1,3-thiazol-2-yl]-4-(trifluoromethyl)benzamide], the melting point lay in the range of 162 to 167 °C. `CC(C)n1nc(-c2sc(NC(=O)c3ccccc3C(F)(F)F)nc2-c2ccccc2)ccc1=O` [Example 40, N-[5-(1-Isopropyl-6-oxo-1,6-dihydro-3-pyridazinyl)-4-phenyl-1,3-thiazol-2-yl]-2-(trifluoromethyl)benzamide] displayed a melting point of 219 to 220 °C.

Turning to `COc1ccccc1C(=O)Nc1nc(-c2ccccc2)c(-c2ccc(=O)n(C(C)C)n2)s1` [Example 41, N-[5-(1-Isopropyl-6-oxo-1,6-dihydro-3-pyridazinyl)-4-phenyl-1,3-thiazol-2-yl]-2-methoxybenzamide], the melting point is greater than 250 °C.

In turn, `Cc1cccc(C(=O)Nc2nc(-c3ccccc3)c(-c3ccc(=O)n(C(C)C)n3)s2)c1` [Example 42, N-[5-(1-Isopropyl-6-oxo-1,6-dihydro-3-pyridazinyl)-4-phenyl-1,3-thiazol-2-yl]-3-methylbenzamide] gave a melting point of 198 to 199 °C. To `CC(C)n1nc(-c2sc(NC(=O)c3cc(C(F)(F)F)cc(C(F)(F)F)c3)nc2-c2ccccc2)ccc1=O` [Example 44, N-[5-(1-Isopropyl-6-oxo-1,6-dihydro-3-pyridazinyl)-4-phenyl-1,3-thiazol-2-yl]-3,5-bis(trifluoromethyl)benzamide] belongs 207 to 208 °C; to `COc1ccc(C(=O)Nc2nc(-c3ccccc3)c(-c3ccc(=O)n(C(C)C)n3)s2)cc1` [Example 45, N-[5-(1-Isopropyl-6-oxo-1,6-dihydro-3-pyridazinyl)-4-phenyl-1,3-thiazol-2-yl]-4-methoxybenzamide], 219 to 221 °C. With `CC(C)n1nc(-c2sc(NC(=O)c3ccccc3Cl)nc2-c2ccccc2)ccc1=O` [Example 46, 2-Chloro-N-[5-(1-isopropyl-6-oxo-1,6-dihydro-3-pyridazinyl)-4-phenyl-1,3-thiazol-2-yl]benzamide] the figure was 220 to 221 °C.

On to `CC(C)n1nc(-c2sc(NC(=O)c3ccc(Cl)cc3)nc2-c2ccccc2)ccc1=O` [Example 47, 4-Chloro-N-[5-(1-isopropyl-6-oxo-1,6-dihydro-3-pyridazinyl)-4-phenyl-1,3-thiazol-2-yl]benzamide], for which the melting point lay within 205 to 206 °C.

Take `CC(C)n1nc(-c2sc(NC(=O)c3ccc(F)cc3)nc2-c2ccccc2)ccc1=O` [Example 48, 4-fluoro-N-[5-(1-isopropyl-6-oxo-1,6-dihydro-3-pyridazinyl)-4-phenyl-1,3-thiazol-2-yl]benzamide]: the melting point fell in the range of 225 to 226 °C. `CC(C)n1nc(-c2sc(NC(=O)c3c(Cl)cccc3Cl)nc2-c2ccccc2)ccc1=O` [Example 49, 2,6-Dichloro-N-[5-(1-isopropyl-6-oxo-1,6-dihydro-3-pyridazinyl)-4-phenyl-1,3-thiazol-2-yl]benzamide]: the melting point lay in the range of 248 to 249 °C. In turn, `CC(C)n1nc(-c2sc(NC(=O)N(C)C)nc2-c2ccccc2)ccc1=O` [Example 50, N′-[5-(1-Isopropyl-6-oxo-1,6-dihydro-3-pyridazinyl)-4-phenyl-1,3-thiazol-2-yl]-N,N-dimethylurea] yielded a melting point of 199 to 200 °C. For `CC(C)n1nc(-c2sc(NC(=O)c3ccc(I)cc3)nc2-c2ccccc2)ccc1=O` [Example 51, 4-Iodo-N-[5-(1-isopropyl-6-oxo-1,6-dihydro-3-pyridazinyl)-4-phenyl-1,3-thiazol-2-yl]benzamide], the melting point was in the range of 253 to 254 °C.

As to `CC(C)n1nc(-c2sc(NC(=O)N3CCCCC3)nc2-c2ccccc2)ccc1=O` [Example 52, N-[5-(1-Isopropyl-6-oxo-1,6-dihydro-3-pyridazinyl)-4-phenyl-1,3-thiazol-2-yl]-1-piperidinecarboxamide], the melting point lay in the range of 138 to 140 °C. To `CC(C)n1nc(-c2sc(NC(=O)c3ccccc3OC(F)(F)F)nc2-c2ccccc2)ccc1=O` [Example 53, N-[5-(1-Isopropyl-6-oxo-1,6-dihydro-3-pyridazinyl)-4-phenyl-1,3-thiazol-2-yl]-2-(trifluoromethoxy)benzamide] belongs 212 to 213 °C; to `CC(C)n1nc(-c2sc(NC(=O)c3ccc(CCl)cc3)nc2-c2ccccc2)ccc1=O` [Example 56, 4-(Chloromethyl)-N-[5-(1-isopropyl-6-oxo-1,6-dihydro-3-pyridazinyl)-4-phenyl-1,3-thiazol-2-yl]benzamide], greater than 250 °C; to `CC(C)n1nc(-c2sc(NC(=O)C3CC3)nc2-c2ccc(F)cc2)ccc1=O` [Example 57, N-[4-(4-Fluorophenyl)-5-(1-isopropyl-6-oxo-1,6-dihydro-3-pyridazinyl)-1,3-thiazol-2-yl]cyclopropanecarboxamide], 250 to 252 °C. With `CC(C)CC(=O)Nc1nc(-c2ccccc2)c(-c2ccc(=O)n(C(C)C)n2)s1` [Example 58, N-[5-(1-Isopropyl-6-oxo-1,6-dihydro-3-pyridazinyl)-4-phenyl-1,3-thiazol-2-yl]-3-methylbutanamide] the figure was 198 to 199 °C; with `CC(C)n1nc(-c2sc(NC(C)(C)C)nc2-c2ccccc2)ccc1=O` [Example 61, 6-[2-(tert-Butylamino)-4-phenyl-1,3-thiazol-5-yl]-2-isopropyl-3(2H)-pyridazinone], 189 to 190 °C; with `CCNc1nc(-c2ccccc2)c(-c2ccc(=O)n(C(C)C)n2)s1` [Example 62, 6-[2-(Ethylamino)-4-phenyl-1,3-thiazol-5-yl]-2-isopropyl-3(2H)-pyridazinone], 167 to 169 °C. Consider `CC(C)n1nc(-c2sc(NC(=N)N)nc2-c2ccccc2)ccc1=O` [Example 63, N-[5-(1-Isopropyl-6-oxo-1,6-dihydro-3-pyridazinyl)-4-phenyl-1,3-thiazol-2-yl]guanidine], for which the melting point was greater than 250 °C. In turn, `CC(C)Nc1nc(-c2ccccc2)c(-c2ccc(=O)n(C(C)C)n2)s1` [Example 64, 2-Isopropyl-6-[2-(isopropylamino)-4-phenyl-1,3-thiazol-5-yl]-3(2H)-pyridazinone] returned a melting point of 138 to 139 °C. To `CC(C)n1nc(-c2sc(NCc3ccccc3)nc2-c2ccccc2)ccc1=O` [Example 65, 6-[2-(Benzylamino)-4-phenyl-1,3-thiazol-5-yl]-2-isopropyl-3 (2H)-pyridazinone] belongs 157 to 158 °C; to `CC(C)n1nc(-c2sc(NCc3ccco3)nc2-c2ccccc2)ccc1=O` [Example 66, 6-{2-[(2-Furylmethyl)amino]-4-phenyl-1,3-thiazol-5-yl}-2-isopropyl-3(2H)-pyridazinone], 115 to 116 °C; to `CC(C)n1nc(-c2sc(Nc3ccccn3)nc2-c2ccccc2)ccc1=O` [Example 67, 2-Isopropyl-6-[4-phenyl-2-(2-pyridinylamino)-1,3-thiazol-5-yl]-3(2H)-pyridazinone], 194 to 195 °C.

Values taken from patent US20050004134A1, “Thiazole derivative and pharmaceutical use thereof” (priority 2001, published 2005).
